Laboratory results reported in patent publication US20180327354A1, “Unnatural Analogues of Calcitriol and Uses Thereof” (Vidasym, Inc., priority 2009, published 2018).
“Also recorded” adds a separate entry of the source. Where two headings read alike, the source gives them in different places.

Assays:
CYP24A1 [1] = assay: CYP24A1 expression induction in HL-60 promyelocytic leukemia cells (real-time RT-PCR); type: cell-based; details: Homo sapiens; HL-60 cells, 24 h, mRNA normalized to GAPDH; Table 3 summary, some values average of 3 or more determinations; read-out: CYP24A1 EC50
Description: (§1) Some compounds were tested in HL-60 promyelocytic leukemia cells and a primary culture of human coronary artery smooth muscle cells (HCASMC) for CYP24A1 induction. It is well documented that CYP24A1 has a VDRE in its promoter region and is a specific target gene of VDR (Meyer et al., 2007, J Biol Chem 282: 22344-22352). […] Compounds also were tested in HCASMC for their effects in inducing VDR. To assess the suitability of a compound for modulating immune responses, compounds were tested in HL-60 for their effects in inducing CD14 expression. To assess the suitability of a compound for treating thrombosis, compounds also were tested in HCASMC for their effects in modulating thrombomodulin and thrombospondin-1.
(§2) Compounds are tested in human HL-60 promyelocytic leukemia cells to assess their potency in inducing the expression of CYP24A1 and CD14. HL-60 cells are cultured in IMDM supplemented with 20% heat-inactivated fetal bovine serum at 37° C. in a humidified 5% CO2-95% air atmosphere. Cells are plated into 6 well plates and treated with test agent for 24 h. Cells are lysed with the addition of 1 mL of Trizol and RNA prepared according to the manufacturer's protocol.
(§3) Real-time reverse transcription-PCR is performed with the forward and reverse PCR primers and 250 nM of the TAQMAN™ probe specifically designed for CYP24A1 or CD14. (A TAQMAN™ probe is comprised of a fluorophore covalently attached to the 5′-end of the oligonucleotide probe and a quencher at the 3′-end.) After the data acquisition, the CYP24A1 or CD14 mRNA expression level is normalized to the GAPDH mRNA level. FIGS. 2A and 2B show the results from a typical CYP24A1 (FIG. 2A) and CD14 (FIG. 2B) expression study.

CD14 = CD14 expression induction in HL-60 promyelocytic leukemia cells (real-time RT-PCR); type: cell-based; details: Homo sapiens; HL-60 cells, 24 h, mRNA normalized to GAPDH; Table 3 summary, some values average of 3 or more determinations; read-out: CD14 EC50
Description: as §1, §2, §3

normal mice = assay: Hypercalcemic side effect profile and serum PTH in normal mice; type: in vivo, Male C57/BL mice; details: for dose at which compound starts to raise serum Ca: i.p. dosing once daily for 3 consecutive days
Description: The normal mice model is a convenient and quick way to assess the hypercalcemic side effect profile of compounds. At the same time, data on serum PTH can be collected.
Male C57/BL mice at 18-20 g are dosed with the test agent at 100 al/mouse (concentrations as indicated) i.p. once daily for 3 consecutive days or at 10 ml/kg, p.o. gavage, once daily for 5 days. The animals were harvested 24 h after the last dose by anesthetization with ketamine/xylazine. Blood was collected from the aorta. Serum total calcium was measured using the QuantiChrom Calcium Assay kit and/or the Roche Hitachi 912 Chemistry Analyzer. Serum PTH was measured using a PTH Immunoassay. Vehicle control was 100 l/mouse of 5% EtOH/95% propylene glycol for i.p. dosing or 10 ml/kg of 20% Hydroxypropyl-β-Cyclodextrin for p.o. gavage dosing.
For serum chemistry data, group mean±SEM are presented. Differences between vehicle and compound-treated groups are assessed using a one-way ANOVA followed by a Dunnett's post-hoc test. FIGS. 3A and 3B show the results from a typical p.o. gavage dosing study (n=4-9 per group).

[2] = Maximal absorbance wavelength and extinction coefficient (spectrophotometer scan); type: physicochemical; details: 100 μM in 50:50 de-ionized water and ethanol; for extinction coefficient: in M-1·cm-1 (unit assumed)
Description: To determine the maximal absorbance wavelength (ODmax) and the extinction coefficients for the compounds, each compound is diluted in a 50:50 solution (by volume) of de-ionized water and ethanol at 100 μM and scanned by a spectrophotometer.

CYP24A1 [3] = assay: CYP24A1 expression induction in primary culture of human coronary artery smooth muscle cells; type: cell-based; details: HCASMC, 24 h, Table 4 summary, some values average of 2 or more determinations, read-out: EC50 for CYP24A1 induction
Description: (§4) Compounds were tested in a primary culture of HCASMC to assess their potency in inducing the expression of CYP24A1 and VDR.
(§5) Primary culture of HCASMC was grown in smooth muscle growth medium SmGM-2 containing 5.5 mM glucose, 5% FBS, 50 μg/ml gentamicin, 50 ng/ml amphotericin-B, 5 μg/ml insulin, 2 ng/ml hFGF, and 0.5 ng/ml hEGF at 37° C. in a humidified 5% CO2-95% air. Cells were grown to >80% confluence and used within five passages.
(§6) Cells were plated into 6 well plates and treated with test agent for 24 h. Cells were lysed with the addition of 1 mL of Trizol and RNA prepared according to the manufacturer's protocol.
(§7) Real-time reverse transcription-PCR was performed with the forward and reverse PCR primers and […] of the TAQMAN™ probe specifically designed for CYP24A1 or VDR. (A TAQMAN™ probe is comprised of a fluorophore covalently attached to the 5′-end of the oligonucleotide probe and a quencher at the 3′-end.) After the data acquisition, the CYP24A1 or VDR mRNA expression level was normalized to the GAPDH mRNA level. […] Group mean±STDEV (standard deviation) are presented.

VDR = VDR expression induction in primary culture of human coronary artery smooth muscle cells; type: cell-based; details: HCASMC, 24 h, Table 4 summary, some values average of 2 or more determinations, read-out: EC50 for VDR induction
Description: as §4, §5, §6, §7

thrombospondin-1 = assay: Thrombospondin-1 protein in human coronary artery smooth muscle cells (Western blot); type: cell-based; details: HCASMC, 48 h, FIG. 21A
Description: (§8) Human coronary artery smooth muscle cells (HCASM) were incubated with Vida-5 or Vida-11 at different concentrations for 48 h and then were solubilized in 50 al of SDS-PAGE sample buffer. The protein content in each sample was determined by the bicinchoninic acid protein assay. Samples were resolved by SDS-PAGE using a 4-12% NuPAGE gel, and proteins were electrophoretically transferred to polyvinylidene fluoride membrane for Western blotting. The membrane was blocked for 1 h at 25° C. with 5% nonfat dry milk in phosphate buffered saline Tween-20 (PBS-T) and then incubated with a mouse anti-thrombospondin-1 monoclonal antibody (2,000-fold dilution), or a mouse anti-TM monoclonal antibody (2,000-fold dilution) in PBS-T overnight at 4° C.
(§9) The membrane was washed with PBS-T and incubated with a horseradish peroxidase-labeled anti-mouse antibody for 1 h at 25° C. The membrane was then incubated with Amersham ECL Plus Western Blotting Detection Reagents. Specific bands were visualized by the Multiimage II of Alpha Innotech imaging system. Band intensity was quantified using Spot Denso.

thrombomodulin = assay: Thrombomodulin protein in human coronary artery smooth muscle cells (Western blot); type: cell-based; details: HCASMC, 48 h, FIG. 21B
Description: as §8, §9

uremic rats = details: cited from earlier work
[4] = Slatopolsky et al., 1998, converted from ng/rat

SMILES	maximal absorbance wavelength [2]	extinction coefficient [2]	EC50 (CYP24A1 [1])	EC50 (CD14)	dose at which compound starts to raise serum Ca (normal mice)	other results
C[C@@H](OCCC(C)(C)O)C1CCC2/C(=C/C=C3C[C@@H](O)C4(CC4)[C@H](O)C3)CCCC21C (stereo partly drawn) [Vida-1, (4R,8R)-6-((E)-2-((1S,7αS)-1-((R)-1-(3-hydroxy-3-methylbutoxy)ethyl)-7α-methyldihydro-1H-inden-4(2H, 5H, 6H, 7H, 7αH)-ylidene)ethylidene)spiro[2.5]octane-4,8-diol]	253 nm	29550	0.069 µM	0.022 µM	0.01 µg/kg	
C[C@@H](OC[C@H](C)C(C)(C)O)C1CCC2/C(=C/C=C3C[C@@H](O)C4(CC4)[C@H](O)C3)CCCC21C (stereo partly drawn) [Vida-4, (4R,8R)-6-((E)-2-((3αS,7αS)-1-((R)-1-((S)-3-hydroxy-2,3-dimethylbutoxy)ethyl)-7α-methyldihydro-1H-inden-4(2H, 5H, 6H, 7H, 7αH)-ylidene)ethylidene) spiro[2.5]octane-4,8-diol]	253 nm	23610	0.19 µM	0.031 µM		fold less potent in raising serum Ca than Vida-1 (normal mice; i.p. dosing, FIG. 4): at least 100 fold
C=C1[C@H](O)CC(=C/C=C2\CCCC3(C)C2CCC3[C@@H](C)OCCCC(O)(CC)CC)C[C@H]1O (stereo partly drawn) [Vida-21, (1R,3R)-5-((E)-2-((1S,7αS)-1-((R)-1-(4-ethyl-4-hydroxyhexyloxy)ethyl)-7α-methyldihydro-1H-inden-4(2H, 5H, 6H, 7H, 7αH)-ylidene)ethylidene)-2-methylenecyclohexane-1,3-diol]	253 nm	58710	0.0008 µM	0.0011 µM	0.1 µg/kg	EC50 (CYP24A1 [3]): 0.0018 µM; EC50 (VDR): 0.0025 µM; thrombospondin-1 protein expression (thrombospondin-1): suppress; also recorded: significantly reduced; thrombomodulin protein expression (thrombomodulin): induce; also recorded: increased
C[C@@H](CSc1cccc(C(C)(C)O)c1)C1CCC2/C(=C/C=C3C[C@@H](O)C4(CC4)[C@H](O)C3)CCCC21C (stereo partly drawn) [Vida-58, (4R,8R)-6-((E)-2-(1-((R)-1-(3-(2-hydroxypropan-2-yl)phenylthio)propan-2-yl)-7α-methyldihydro-1H-inden-4(2H,5H,6H, 7H, 7αH)-ylidene)ethylidene)spiro[2.5]octane-4,8-diol]			0.049 µM	0.125 µM		
C=C1/C(=C\C=C2/CCC[C@]3(C)[C@@H]([C@H](C)CCCC(C)(C)O)CC[C@@H]23)C[C@@H](O)C[C@@H]1O [calcitriol, 1,25-dihydroxyvitamin D3]						dose at which compound raises serum Ca (uremic rats; [4]): ~0.01 µg/kg; dose at which compound starts to suppress serum PTH (uremic rats; [4]): ~0.02 µg/kg; dose at which compound raises serum Ca (uremic rats; Slatopolsky et al., 1998): 4 ng/rat; dose at which compound starts to suppress serum PTH (uremic rats; Slatopolsky et al., 1998): 8 ng/rat

Now from value to compound, other results behind:

maximal absorbance wavelength [2]	extinction coefficient [2]	SMILES	EC50 (CYP24A1 [1])	EC50 (CD14)	dose at which compound starts to raise serum Ca (normal mice)	other results
253 nm	23340	CCC(O)(CC)CCCO[C@H](C)C1CCC2/C(=C/C=C3C[C@@H](O)C4(CC4)[C@H](O)C3)CCCC21C (stereo partly drawn) [Vida-20, (4R,8R)-6-((E)-2-((1S,7αS)-1-((R)-1-(4-ethyl-4-hydroxyhexyloxy)ethyl)-7α-methyldihydro-1H-inden-4(2H, 5H, 6H, 7H, 7αH)-ylidene)ethylidene)spiro[2.5]octane-4,8-diol]	0.0067 µM	0.0016 µM	1 µg/kg	
254 nm	26850	C=C1[C@H](O)CC(=C/C=C2\CCC[C@]3(C)[C@@H]([C@H](C)COc4ccccc4)CC[C@@H]23)C[C@H]1O [Vida-36, (1R,3R)-5-((E)-2-((1R,3αS,7αR)-7α-methyl-1-((S)-1-phenoxypropan-2-yl)dihydro-1H-inden-4(2H, 5H, 6H, 7H, 7αH)-ylidene)ethylidene)-2-methylenecyclohexane-1,3-diol]	249 µM	34 µM		
254 nm	25720	C=C1[C@H](O)CC(=C/C=C2\CCCC3(C)C2CCC3[C@@H](C)COc2cccc(C(C)(C)O)c2)C[C@H]1O (stereo partly drawn) [Vida-37, (1R,3R)-5-((E)-2-(1-((R)-1-(3-(2-hydroxypropan-2-yl)phenoxy)propan-2-yl)-7α-methyldihydro-1H-inden-4(2H, 5H, 6H, 7H, 7αH)-ylidene)ethylidene)-2-methylenecyclohexane-1,3-diol]	0.0061 µM	0.012 µM	10 µg/kg	
254 nm	43580	C=C1[C@H](O)CC(=C/C=C2\CCCC3(C)C2CCC3[C@@H](C)CSc2cccc(C(C)(C)O)c2)C[C@H]1O (stereo partly drawn) [Vida-43, (1R,3R)-5-((E)-2-(1-((R)-1-(3-(2-hydroxypropan-2-yl)phenylthio)propan-2-yl)-7α-methyldihydro-1H-inden-4(2H, 5H, 6H, 7H, 7αH)-ylidene)ethylidene)-2-methylenecyclohexane-1,3-diol]	0.0069 µM	0.063 µM		
253 nm	49670	C[C@@H](COc1cccc(C(C)(C)O)c1)[C@H]1CC[C@H]2/C(=C/C=C3C[C@@H](O)C4(CC4)[C@H](O)C3)CCC[C@]12C [Vida-57, (4R,8R)-6-((E)-2-(1-((R)-1-(3-(2-hydroxypropan-2-yl)phenoxy)propan-2-yl)-7-methyldihydro-1H-inden-4(2H,5H,6H, 7H,7αH)-ylidene)ethylidene)spiro[2.5]octane-4,8-diol]	0.036 µM	0.021 µM		
